Results published in article PMC5384453, “A multi-functional PEGylated gold(III) compound: potent anti-cancer properties and self-assembly into nanostructures for drug co-delivery” (Chemical Science, 2016).

Legend:
[1] = tested on: HCT116 cells; experiment: Flow cytometric analysis of apoptosis with propidium iodide co-staining (Fig. S14, S15); format: cell-based, human; details: HCT116, 2 μM
Experimental: with gold(III) complexes and FITC-annexin V staining. HCT116 (1×10 5 cells) and […]
annexin-binding buffer solution. The cells were then incubated with FITC-annexin V […]
at room temperature in dark for 15 min. The solution was then removed, and the cells were washed with annexin-binding buffer solution. Fluorescence images were then […]
in ice and analyzed by flow cytometry immediately. […]
staining and flow cytometry. […]
atmosphere of 5% CO2. After reaching 80% confluency, the culture medium was […]
of 5% CO2 for 45 min. The solution was then removed. The stained NCM460 cells […]
the procedure described above. […]
(§1) right fore of BALB/c nude mice. When the tumor volume reached 70 mm3 after […]
propidium iodide staining. (b) Flow cytometric analysis of NCM460 […]
annexin V and propidium iodide staining. (c) Flow cytometric analysis […]
annexin V and propidium iodide staining.

[2] = tested on: HCT116 cells; experiment: Co-culture model of HCT116 and NCM460, FITC-Annexin V flow cytometry; format: cell-based, human; details: HCT116 in co-culture with CMF2HC-stained NCM460, 2 μM, 24 h
Experimental: (§2) To further verify the ability of 1 to selectively induce apoptosis of HCT116 cells over NCM460 cells, HCT116 and NCM460 cells were co-cultured and incubated with 1 for 24 h, and then stained with FITC-Annexin V and propidium iodide. In order to differentiate the two different cell lines, NCM460 cells were pre-treated with blue-emissive CMF2HC dye prior to its co-culture with HCT116 cells. […] In a parallel experiment, co-cultured cells treated with 1 for 24 h and stained with FITC-Annexin V and propidium iodide were imaged by fluorescence microscopy (Fig. 4a). Green and red fluorescence were primarily observed in cells without showing blue luminescence, i.e. HCT116 cells. […] The results of both the fluorescence microscopy and flow cytometry support the high selectivity of 1 on killing colon cancer cells in the co-culture model of cancer and normal cells.
(§3) atmosphere of 5% CO2. After reaching 80% confluency, the culture medium was
(§4) of 5% CO2 for 45 min. The solution was then removed. The stained NCM460 cells
(§5) the procedure described above.
as §1

[3] = tested on: NCM460 cells; experiment: as above; format: cell-based, human; details: CMF2HC-stained NCM460 in co-culture with HCT116, 2 μM, 24 h
Experimental: as §2, §3, §4, §5, §1

[4] = tested on: A2780cis xenografts; experiment: In vivo inhibition of tumor growth in nude mice bearing A2780cis xenograft
Experimental: To further investigate the ability of 1 to treat drug-resistant tumors that should be of great interest in clinical application, in vivo antitumor experiments on nude mice bearing cisplatin-resistant A2780cis xenografts with 1 were conducted. […]
every 2 days for 24 days. The control group received equal volume of PBS only.
During the treatment period, the tumor volume and body weight of the nude mice were measured per two days. The tumor volume was calculated by the equation:
Volume (mm3) = l×w2/2, where l and w were the length and width of the tumor. At the end of the treatment, the nude mice were sacrificed and the tumor weight was […]
H&E staining and immunohistochemical (IHC) analysis of mice tissues. […] The expression of p53, Ki67, VEGFR2 and TUNEL was determined by IHC methods as reported previously. […]
animal study. […] During the treatment period, the tumor volume and body weight of the nude mice were measured […]
once every 2–3 days. The tumor volume was calculated by the equation: Volume (mm3) = l×w2/2, where l and w were the length and width of the tumor. At the end of the treatment, the nude mice were sacrificed and the tumor weight was measured. […]
of apoptosis of HCT116 cells was investigated by CellEvent Caspase-3/7 Green ReadyProbes Reagent (30 µL), similar to the procedure of the experiments on gold(III) […]

[Au(TPP–COO–PEG5000–OCH3)]Cl [Compound 1]
apoptotic cells (Q4 region, corrected) ([1]; 24 h): 35.83% | late apoptotic events (Q2 region, corrected) ([1]; 24 h): 1.96% | apoptotic cells (Q4 region, corrected) ([1]; 36 h): 43.83% | late apoptotic events (Q2 region, corrected) ([1]; 36 h): 10.6% | cells undergoing apoptosis (FITC-Annexin V, corrected) [2]: 20.6% | cells undergoing apoptosis (FITC-Annexin V, corrected) [3]: 1.87% | reduction of tumor volume ([4]; 4 mg kg^–1, intravenous injections every 2–3 days for 13 days, n = 5): Over 52% | mouse death / body weight ([4]; A2780cis xenograft nude mice, 4 mg kg^–1 i.v., 13 days): no mouse death or significant loss in body weight
